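Assay format: 96-well plates, 48-hour exposure. At the GI50, growth is halved.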 Calls of active or inactive are those of the source. Cut-off read from the data, not from the text of the source: active = GI50 up to about 1.1 µM and inactive = higher.
Assays:
Assay in all cases: NCI-60 cell line screen, 48 h
[1] = tested on: 786-0
[2] = tested on: A549
[3] = tested on: COLO 205
[4] = tested on: HCT-116
[5] = tested on: K562
[6] = tested on: M14
[7] = tested on: MDA-MB-231
[8] = tested on: MOLT-4
[9] = tested on: NCI-H460
[10] = tested on: OVCAR-3
[11] = tested on: OVCAR-5
[12] = tested on: PC-3
[13] = tested on: RXF 393
[14] = tested on: SN12C
[15] = tested on: SNB-19
[16] = tested on: SNB-75
[17] = tested on: SR
[18] = tested on: UACC-62
[19] = tested on: SK-MEL-28

Measured: GI50

CCOC(=O)c1c(NC(=O)c2cccs2)sc2c1CCC2
inactive: [1] > 100 µM | [2] > 100 µM | [3] > 100 µM | [4] > 100 µM | [5] > 100 µM | [6] > 100 µM | [7] > 100 µM | [8] > 100 µM | [9] > 100 µM | [10] > 100 µM | [11] > 100 µM | [12] > 100 µM | [13] > 100 µM | [14] > 100 µM | [15] > 100 µM | [16] 1.22 µM | [17] 73.3 µM | [18] > 100 µM

N=c1oc2ccc([N+](=O)[O-])cc2cc1C(=O)NCc1ccccc1
inactive: [1] 24.6 µM | [2] 57.1 µM | [3] 20.6 µM | [4] 16.3 µM | [5] 40 µM | [6] 23.4 µM | [7] 22 µM | [8] 27.9 µM | [9] 41 µM | [11] 32.9 µM | [12] 19.6 µM | [13] 14.7 µM | [19] 20.3 µM | [14] 19.9 µM | [15] 39 µM | [16] 11.5 µM | [17] 34.4 µM | [18] 20.2 µM

COc1cc(/C=C2\N=C(c3ccccc3)N(c3nc4ccccc4s3)C2=O)cc(OC)c1OC
inactive: [1] 24.8 µM | [2] 29.6 µM | [4] 35 µM | [5] 16.5 µM | [6] 31.4 µM | [7] 40.3 µM | [8] 11.7 µM | [9] 65.5 µM | [10] 20 µM | [11] > 100 µM | [12] 50.5 µM | [13] 18.8 µM | [19] 33 µM | [14] 26.5 µM | [15] 34.2 µM | [16] 23.1 µM | [17] 11.7 µM

CC(=O)OCC12C(OC(C)=O)C[C@@H](C)C3(CC(c4ccoc4)OC3=O)C1CCC(O)C21CO1 (some centres not stated)
inactive: [1] > 100 µM | [2] > 100 µM | [3] > 100 µM | [4] > 100 µM | [5] > 100 µM | [6] > 100 µM | [7] > 100 µM | [8] > 100 µM | [9] > 10 µM | [10] > 100 µM | [11] > 100 µM | [12] > 100 µM | [13] > 100 µM | [19] > 100 µM | [14] > 100 µM | [15] > 100 µM | [16] > 100 µM | [17] > 100 µM | [18] > 100 µM

N#CSC#CCCC#CSC#N
inactive: [1] 20.3 µM | [2] 19.6 µM | [3] 12.9 µM | [4] 22.8 µM | [5] 13.4 µM | [6] 12.9 µM | [7] 17.7 µM | [8] 2.58 µM | [9] 22.2 µM | [10] 21.6 µM | [11] 20.6 µM | [12] 20.9 µM | [13] 18.9 µM | [19] 29.4 µM | [14] 17.7 µM | [15] 15.5 µM | [17] 7.21 µM | [18] 17 µM

O=C(O)c1ccc(Nc2cnc3cc(C(F)(F)F)ccc3n2)cc1
inactive: [1] 67.6 µM | [2] 42 µM | [3] > 100 µM | [4] 54.7 µM | [5] 29.5 µM | [7] 36.7 µM | [8] 47.5 µM | [9] 36.1 µM | [10] 34.5 µM | [11] 34 µM | [12] 80.7 µM | [13] 46.9 µM | [19] 42.4 µM | [14] 85.5 µM | [15] 60 µM | [16] 35.6 µM | [17] 56.1 µM | [18] 25.3 µM

COC(=O)/C=C(\C)CC/C=C(\C)CCC(O)C(C)(C)O (configuration not stated)
inactive: [1] 19.4 µM | [2] 34.8 µM | [3] 19.7 µM | [4] 20.8 µM | [5] 26.1 µM | [6] 27.1 µM | [7] > 100 µM | [8] 15.2 µM | [9] 19.8 µM | [10] 17.9 µM | [11] 60.4 µM | [12] 14.8 µM | [13] 26.3 µM | [19] 17.9 µM | [14] 19.3 µM | [15] > 100 µM | [16] 17.1 µM | [17] 17.8 µM | [18] 25.1 µM

N#CC1=C(N2CCOCC2)CCC1
inactive: [1] > 100 µM | [2] > 100 µM | [3] > 100 µM | [4] > 100 µM | [5] > 100 µM | [6] > 100 µM | [7] > 100 µM | [8] > 100 µM | [10] > 100 µM | [11] > 100 µM | [12] > 100 µM | [13] > 100 µM | [14] > 100 µM | [15] > 100 µM | [16] > 100 µM | [17] > 100 µM | [18] > 100 µM

CNC1=CC(=O)C2=C(C1=O)[C@H]1CC[C@]3(C)C(=O)CC[C@H]3[C@@H]1CC2
inactive: [1] 17.3 µM | [2] 19.8 µM | [3] 13.7 µM | [4] 16.9 µM | [5] 12.6 µM | [6] 13.5 µM | [7] 24.5 µM | [8] 11.1 µM | [9] 18.5 µM | [10] 1.16 µM | [11] 22.7 µM | [12] 13.1 µM | [13] 15.2 µM | [19] 18.2 µM | [14] 19.9 µM | [15] 17.7 µM | [16] 14.3 µM | [17] 14.1 µM | [18] 14 µM

CC1(C)OC([C@H](O)CO)C([C@H]2NCCS2)O1 (some centres not stated)
inactive: [1] > 100 µM | [2] > 100 µM | [3] > 100 µM | [4] > 100 µM | [5] > 100 µM | [6] > 100 µM | [7] > 100 µM | [8] > 100 µM | [9] > 100 µM | [10] > 100 µM | [11] > 100 µM | [12] > 100 µM | [13] > 100 µM | [19] > 100 µM | [15] > 100 µM | [16] > 100 µM | [17] > 100 µM | [18] > 100 µM

C=CCN1C(=O)/C(=C/c2ccccc2)N=C1SC1OC(COC(C)=O)C(OC(C)=O)C(OC(C)=O)C1OC(C)=O (configuration not stated)
inactive: [1] 23.9 µM | [2] 34 µM | [4] 22.8 µM | [5] 24.4 µM | [6] 30 µM | [7] 18.6 µM | [8] 19.9 µM | [9] 42.8 µM | [10] 19.3 µM | [11] 26 µM | [12] 16.5 µM | [13] 13.1 µM | [19] 26.1 µM | [14] 24.2 µM | [15] 29.6 µM | [16] 21.9 µM | [17] 4.86 µM | [18] 14.4 µM

CC(C)(C)OC(=O)N/N=C(/N)Cc1ccccc1
inactive: [1] > 100 µM | [2] > 100 µM | [3] > 100 µM | [4] > 100 µM | [5] > 100 µM | [6] > 100 µM | [7] > 100 µM | [8] > 100 µM | [10] > 100 µM | [11] > 100 µM | [12] > 100 µM | [13] > 100 µM | [19] > 100 µM | [14] > 100 µM | [15] > 100 µM | [16] > 100 µM | [17] > 100 µM | [18] > 100 µM

CC(=O)OCC(Br)C1(C)CCC(C(C)(C)Br)O1 (configuration not stated)
inactive: [1] > 100 µM | [2] 63.8 µM | [3] 51.2 µM | [4] 46.8 µM | [5] > 100 µM | [6] 89.7 µM | [7] > 100 µM | [8] 73.8 µM | [9] 57.9 µM | [10] 59.2 µM | [11] > 100 µM | [12] 29.4 µM | [13] 51.1 µM | [19] 79.6 µM | [14] 94.2 µM | [15] > 100 µM | [16] 58.2 µM | [17] 77.1 µM

CC(C)CCC[C@@H](C)[C@H]1CC[C@H]2[C@@H]3CC[C@H]4C[C@@H](CCC=C(c5cc(Cl)c(O)c(C(=O)O)c5)c5cc(Cl)c(O)c(C(=O)O)c5)CC[C@]4(C)[C@H]3CC[C@]12C
inactive: [1] > 100 µM | [2] > 100 µM | [3] > 100 µM | [4] > 100 µM | [5] > 100 µM | [6] > 100 µM | [7] > 100 µM | [8] > 100 µM | [9] > 100 µM | [10] > 100 µM | [11] > 100 µM | [12] > 100 µM | [13] > 100 µM | [19] > 100 µM | [14] > 100 µM | [15] > 100 µM | [16] > 100 µM | [17] > 100 µM | [18] > 100 µM

O=C1Cc2c([nH]c3ccc(Br)cc23)-c2ccccc2N1 [KENPAULLONE]
inactive: [1] > 46.3 µM | [2] > 90.2 µM | [3] > 100 µM | [5] > 54.8 µM | [6] > 100 µM | [7] > 100 µM | [8] 13.5 µM | [9] > 100 µM | [10] 3.95 µM | [11] > 100 µM | [12] > 100 µM | [13] 5.11 µM | [19] > 62.4 µM | [14] > 100 µM | [15] > 78.5 µM | [16] > 50.8 µM | [17] 4.21 µM | [18] > 100 µM
